Measured values as given in patent US20070155806A1 (The University of Tokyo, priority 2005, published 2007).

Key:
Type in all cases: biochemical
luciferase (firefly) [1] = target: T1, luciferase (firefly) (Photinus pyralis, UniProt P08659); test: Luminescence characteristics with firefly luciferase (Example 3); settings: for relative intensity: calculated on the basis of the intensity obtained for aminoluciferin; for λmax(nm): luminescence peak, HEPES pH 7.7, ATP, Mg, CoA; for λmax(nm) / initial intensity: 12 μmol/L substrate, 20 μg/mL luciferase; for initial intensity: luminescence, HEPES pH 7.7; for peak luminescence wavelength shift to longer wavelength side compared with luciferin: versus luciferin
Method: The measurement was performed by using Fluorescence Spectrophotometer F-4500 (Hitachi).

luciferase (firefly) [2] = target: T1, luciferase (firefly); test: Measurement of luminescence after reaction with luciferase (Example 5, FIG. 2); settings: 12 μmol/L substrate, 40 μg/mL luciferase
Method: Luminescence spectra of Compounds 19 and 20 were measured.

luciferase (firefly) [3] = target: T1, luciferase (firefly); test: HPLC analysis of luciferase reaction product with or without ATP (Example 6, FIG. 3); settings: system added with ATP vs without ATP
Method: For 6-(4-aminophenethyl)-aminoluciferin (Compound 21), the enzymatic reaction was also performed in a system without ATP (all the other conditions were the same as Example 5), along with the aforementioned enzymatic reaction in Example 5. After these two enzymatic reactions, each enzymatic reaction mixture was collected and filtered by using a centrifugal separator to remove the enzyme. The solvent was evaporated by lyophilization to obtain a residue after the enzymatic reaction. A small amount of the residue was dissolved in purified water and methanol, then analyzed by HPLC. The results are shown in FIG. 3. • Analysis conditions • Elution solvent: A=H2O/0.1% trifluoroacetic acid, B=80% acetonitrile/20% • water/0.1% trifluoroacetic acid, A/B=80/20 to 20/80 (20 minutes) • Detection: UV-vis (400 nm) • Column: ODS-3, 4.6×250 mm • Flow rate: 1 mL/min

T1 sequence (P08659 whole entry, species assumed): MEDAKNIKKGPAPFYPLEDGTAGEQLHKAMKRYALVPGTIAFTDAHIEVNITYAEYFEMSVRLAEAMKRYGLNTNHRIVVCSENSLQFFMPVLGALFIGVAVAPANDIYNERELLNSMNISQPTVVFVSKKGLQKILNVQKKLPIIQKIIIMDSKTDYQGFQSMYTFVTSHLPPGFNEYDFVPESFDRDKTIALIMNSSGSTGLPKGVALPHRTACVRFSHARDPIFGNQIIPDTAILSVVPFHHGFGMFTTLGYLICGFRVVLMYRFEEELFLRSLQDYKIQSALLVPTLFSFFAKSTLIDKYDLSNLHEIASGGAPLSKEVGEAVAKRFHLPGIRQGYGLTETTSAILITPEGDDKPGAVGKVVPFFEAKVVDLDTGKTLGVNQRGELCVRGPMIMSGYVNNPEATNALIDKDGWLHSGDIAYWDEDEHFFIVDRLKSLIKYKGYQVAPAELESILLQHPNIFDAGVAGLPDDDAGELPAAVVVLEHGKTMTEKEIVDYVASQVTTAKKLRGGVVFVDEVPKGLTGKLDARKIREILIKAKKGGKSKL

Q: With `CNc1ccc2nc(C3=NC(C(=O)O)CS3)sc2c1` (stereo not shown) [Compound 10, N-methylaminoluciferin] as the compound, how does the relative intensity (luciferase (firefly) [1]) read?
A: The relative intensity was 66.5.

Q: And the “λmax(nm)” value (luciferase (firefly) [1])?
A: The value was 624 nm.

Q: What about the initial intensity (luciferase (firefly) [1]) of the same compound?
A: The initial intensity was 1360.

Q: What about the “peak luminescence wavelength shift to longer wavelength side compared with luciferin” value (from here on “peak luminescence wavelength shift”) (luciferase (firefly) [1]) of the same compound?
A: Its value is 49 nm.

Q: With `O=C(O)C1CSC(c2nc3ccc(NCc4ccccc4)cc3s2)=N1` (stereo not shown) [Compound 12, N-benzylaminoluciferin] as the compound, how does the relative intensity (luciferase (firefly) [1]) read?
A: The relative intensity was 5.2.

Q: What about the “λmax(nm)” value (luciferase (firefly) [1]) of the same compound?
A: The value was 623 nm.

Q: And the initial intensity (luciferase (firefly) [1])?
A: The initial intensity was 106.

Q: And the “peak luminescence wavelength shift” value (luciferase (firefly) [1])?
A: Its value is 48 nm.

Q: How did the relative intensity (luciferase (firefly) [1]) turn out when `Nc1ccc2nc(C3=N[C@@H](C(=O)O)CS3)sc2c1` [aminoluciferin, reference compound] was run?
A: Its relative intensity is 100.0.

Q: And the “λmax(nm)” value (luciferase (firefly) [1])?
A: Its value is 609 nm.

Q: And the initial intensity (luciferase (firefly) [1])?
A: The initial intensity was 2044.

Q: What about the “peak luminescence wavelength shift” value (luciferase (firefly) [1]) of the same compound?
A: Its value is 34 nm.

Q: Which relative intensity (luciferase (firefly) [1]) does the source give for `O=C(O)C1CSC(c2nc3ccc(NCCc4ccccc4)cc3s2)=N1` (stereo not shown) [Compound 13, N-phenethylaminoaminoluciferin] here?
A: The relative intensity was 8.6.

Q: What about the “λmax(nm)” value (luciferase (firefly) [1]) of the same compound?
A: The value was 611 nm.

Q: What about the initial intensity (luciferase (firefly) [1]; listed as N-phenethylaminoluciferin) of the same compound?
A: Its initial intensity is 175.

Q: And the “peak luminescence wavelength shift” value (luciferase (firefly) [1])?
A: The value was 36 nm.

Q: Which results are given for `Nc1ccc(CCNc2ccc3nc(C4=N[C@@H](C(=O)O)CS4)sc3c2)cc1` [Compound 21, 6-(4′-aminophenethyl)-aminoluciferin]?
A: luminescent property (luciferase (firefly) [2]): completely lost the luminescent property; reaction as luciferase substrate (elution peak of compound after enzymatic reaction) (luciferase (firefly) [3]): reacted as a luciferase substrate

Q: What does the source list for `O=C(O)C1CSC(c2nc3ccc(NCCCc4ccccc4)cc3s2)=N1` (stereo not shown) [Compound 14, N-phenylpropylaminoluciferin]?
A: relative intensity (luciferase (firefly) [1]): 48.0; λmax(nm) (luciferase (firefly) [1]): 611 nm; initial intensity (luciferase (firefly) [1]): 980; peak luminescence wavelength shift to longer wavelength side compared with luciferin (luciferase (firefly) [1]): 36 nm

Q: What does the source list for `CN(C)c1ccc2nc(C3=NC(C(=O)O)CS3)sc2c1` (stereo not shown) [Compound 11, N,N-dimethylaminoluciferin]?
A: relative intensity (luciferase (firefly) [1]): 44.1; λmax(nm) (luciferase (firefly) [1]): 641 nm; initial intensity (luciferase (firefly) [1]): 901; peak luminescence wavelength shift to longer wavelength side compared with luciferin (luciferase (firefly) [1]): 66 nm

Q: Which results are given for `O=C(Nc1ccc(CCNc2ccc3nc(C4=NC(C(=O)O)CS4)sc3c2)cc1)OCc1ccccc1` (stereo not shown) [Compound 19, 6-(4′-benzyloxycarbonylamidophenethyl)-aminoluciferin]?
A: luminescent property (luciferase (firefly) [2]): luminescence was observed; luminescence peak (luciferase (firefly) [2]; HEPES pH 7.7): about 610 nm
